Experimental data taken from ChEMBL document CHEMBL1201862, “PubChem BioAssay data set” (2004).
Active and inactive are the calls of the source.

How the values were obtained:
[1] = system: Streptococcus; experiment: Group A Streptococcus viability loss, dose response, counter-screen for streptokinase expression inhibitor project, luminescence, BacTiterGlo (AID 1915); assay type: functional, organism-based;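 further: potency for reduction of bacterial viability or growth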
[2] = inhibitors of firefly luciferase expression or activity, dose response, H4 neuroglioma cells, luminescence (AID 1990); assay type: functional, cell-based
[3] = microbe, parasite or virus in culture; assay type: functional; conditions: Mycobacterium tuberculosis
[4] = biological target: T1, Streptokinase A (Streptococcus pyogenes serotype M1, UniProt P10520); experiment: S. pyogenes streptokinase expression inhibitors, potency, dose response, plasminogen activation absorbance, OD405 (AID 1914); assay type: functional, Streptococcus pyogenes M1 GAS;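 further: secreted streptokinase activity via plasminogen activation per viability signal from cell pellet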
T1 sequence (P10520 whole entry): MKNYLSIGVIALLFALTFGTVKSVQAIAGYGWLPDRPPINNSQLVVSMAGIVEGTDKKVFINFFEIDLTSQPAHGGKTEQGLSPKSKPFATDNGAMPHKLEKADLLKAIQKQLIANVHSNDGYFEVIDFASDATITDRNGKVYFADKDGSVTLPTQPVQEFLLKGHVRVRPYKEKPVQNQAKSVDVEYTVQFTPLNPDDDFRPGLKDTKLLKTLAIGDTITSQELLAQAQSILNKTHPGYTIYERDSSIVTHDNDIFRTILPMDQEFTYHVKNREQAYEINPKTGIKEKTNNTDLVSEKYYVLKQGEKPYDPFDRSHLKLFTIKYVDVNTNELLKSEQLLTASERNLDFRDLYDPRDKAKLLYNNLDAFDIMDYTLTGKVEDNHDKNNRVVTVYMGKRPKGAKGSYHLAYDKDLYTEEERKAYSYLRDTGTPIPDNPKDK

[5] = Luminescence Cell-Based Dose Response HTS to Identify Inhibitors of 5'UTR Stem-Loop Driven Prion Protein mRNA Translation in H4 Neuroglioblastoma Cells. [Related pubchem assays: 1827 (Project Summary), 1813 (Primary HTS)]; assay type: functional
[6] = system: Streptococcus sp. 'group A'; experiment: growth inhibition of control SK(-) GAS strain, dose response, counter-screen for streptokinase expression inhibitor project, luminescence, kanamycin, BacTiterGlo, confirmation (AID 1900); assay type: functional, organism-based
[7] = inhibitors of SNCA 5'UTR-driven reporter translation, confirmation, H4 neuroglioma cells, luminescence (AID 1988); assay type: functional, cell-based
[8] = biological target: Luciferin 4-monooxygenase (Photinus pyralis, UniProt P08659); experiment: firefly luciferase enzyme inhibitors, dose response, biochemical, luminescence (AID 1891)
[9] = Luminescence Cell-Based Dose Confirmation HTS to Identify Inhibitors of Platelet Dense Granule Release. [Related pubchem assays: 1663 (Primary HTS), 1678 (Summary of Project)]; assay type: functional
[10] = biological target: FAD-linked sulfhydryl oxidase ALR (Homo sapiens, UniProt P55789); experiment: inhibitors of human ALR sulfhydryl oxidase, dose response, biochemical, H2O2 detection, luminescence, cherry-pick (AID 493248)
[11] = biological target: Voltage-dependent T-type calcium channel subunit alpha-1H (Homo sapiens, UniProt O95180); assay type: functional;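 further: channel activity triggered by adding a high calcium stimulation buffer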
[12] = biological target: T2, Polyadenylate-binding protein 1 (Homo sapiens, UniProt P11940); experiment: PABP1 MLLE–PAM2 interaction inhibitors, dose response, miRNA deadenylation inhibitor project, biochemical, fluorescence polarization, Cy5-PAM2 peptide, secondary (AID 602260); assay type: functional; conditions: read-out: IC50_Mean
[13] = biological target: T2, Polyadenylate-binding protein 1; experiment: PABP1 MLLE–PAM2 binding inhibitor potency, dose response, biochemical, fluorescence polarization, FITC-PAM2 peptide (AID 602259); assay type: functional; conditions: read-out: IC50_Mean
[14] = biological target: T3, Calpain-2 catalytic subunit (Sus scrofa, UniProt P43367); experiment: pig calpain II inhibitor potency, dose response, biochemical, fluorogenic peptide substrate (AID 1420); assay type: functional
T3 sequence (P43367 whole entry): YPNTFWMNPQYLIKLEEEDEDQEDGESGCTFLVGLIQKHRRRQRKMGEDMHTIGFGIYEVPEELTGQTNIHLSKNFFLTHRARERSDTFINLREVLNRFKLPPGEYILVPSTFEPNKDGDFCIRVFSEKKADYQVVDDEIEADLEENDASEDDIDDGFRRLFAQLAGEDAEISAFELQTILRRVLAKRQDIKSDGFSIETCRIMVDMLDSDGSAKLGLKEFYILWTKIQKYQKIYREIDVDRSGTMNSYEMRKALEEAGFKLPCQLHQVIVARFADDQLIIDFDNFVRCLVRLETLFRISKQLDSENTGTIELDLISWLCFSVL

[15] = cells; assay type: functional
[16] = biological target: Cytochrome P450 3A4 (Homo sapiens, UniProt P08684);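 further: CYP3A4 tested as one member of a cytochrome P450 panel screen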
[17] = biological target: Cytochrome P450 2C9 (Homo sapiens, UniProt P11712)
[18] = biological target: Cytochrome P450 2D6 (Homo sapiens, UniProt P10635);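 further: CYP2D6 member of a cytochrome P450 panel assay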
[19] = biological target: T4, Heat shock factor protein 1 (Mus musculus, UniProt P38532); experiment: inhibition of MG132-induced HSE-luciferase signal, confirmation, cell-based, NIH3T3, luminescence, dose retest (AID 2382); assay type: functional;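 further: NIH3T3 fibroblasts with HSF1-driven luciferase reporter stressed by proteasome inhibitor MG132; luminescence from HSF1-driven luciferase expression after 8 hours of MG132 stress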
T4 sequence (P38532 whole entry): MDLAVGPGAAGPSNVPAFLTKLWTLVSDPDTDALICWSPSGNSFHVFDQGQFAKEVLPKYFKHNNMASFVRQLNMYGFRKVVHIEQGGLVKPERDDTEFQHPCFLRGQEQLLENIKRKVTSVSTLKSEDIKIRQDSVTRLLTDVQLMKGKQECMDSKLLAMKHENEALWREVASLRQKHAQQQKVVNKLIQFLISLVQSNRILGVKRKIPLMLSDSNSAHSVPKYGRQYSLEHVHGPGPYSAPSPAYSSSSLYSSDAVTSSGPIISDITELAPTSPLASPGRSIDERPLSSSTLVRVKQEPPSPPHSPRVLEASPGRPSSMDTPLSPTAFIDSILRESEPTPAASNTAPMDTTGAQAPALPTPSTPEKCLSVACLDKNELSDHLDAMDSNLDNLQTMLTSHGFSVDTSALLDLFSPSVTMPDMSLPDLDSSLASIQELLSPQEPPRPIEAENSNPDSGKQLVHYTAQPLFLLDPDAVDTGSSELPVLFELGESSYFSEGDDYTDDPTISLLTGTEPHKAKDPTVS

[20] = biological target: T5, Rac GTPase-activating protein 1 (Homo sapiens, UniProt Q9H0H5); experiment: MgcRacGAP GTPase-activating activity inhibitors, confirmation, biochemical, ADP Hunter fluorescence, primary and confirmatory (AID 624330); assay type: functional
T5 sequence (Q9H0H5 whole entry): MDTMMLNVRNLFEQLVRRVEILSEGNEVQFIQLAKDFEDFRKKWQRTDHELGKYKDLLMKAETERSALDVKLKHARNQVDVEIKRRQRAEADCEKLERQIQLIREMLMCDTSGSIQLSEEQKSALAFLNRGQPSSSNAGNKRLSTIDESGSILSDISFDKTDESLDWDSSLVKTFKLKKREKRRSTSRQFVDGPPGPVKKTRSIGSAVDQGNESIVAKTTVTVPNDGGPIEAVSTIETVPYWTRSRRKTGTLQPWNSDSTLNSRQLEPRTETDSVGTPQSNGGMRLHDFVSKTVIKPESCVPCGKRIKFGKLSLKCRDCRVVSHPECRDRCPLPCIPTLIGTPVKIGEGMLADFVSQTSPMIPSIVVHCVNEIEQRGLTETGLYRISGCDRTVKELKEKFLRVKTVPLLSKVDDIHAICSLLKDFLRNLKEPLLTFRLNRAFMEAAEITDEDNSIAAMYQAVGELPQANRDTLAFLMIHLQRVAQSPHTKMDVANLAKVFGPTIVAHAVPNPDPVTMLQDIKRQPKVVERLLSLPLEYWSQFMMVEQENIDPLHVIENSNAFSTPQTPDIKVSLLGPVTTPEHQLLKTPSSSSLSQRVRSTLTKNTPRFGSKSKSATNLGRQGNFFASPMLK

T2 sequence (P11940 whole entry): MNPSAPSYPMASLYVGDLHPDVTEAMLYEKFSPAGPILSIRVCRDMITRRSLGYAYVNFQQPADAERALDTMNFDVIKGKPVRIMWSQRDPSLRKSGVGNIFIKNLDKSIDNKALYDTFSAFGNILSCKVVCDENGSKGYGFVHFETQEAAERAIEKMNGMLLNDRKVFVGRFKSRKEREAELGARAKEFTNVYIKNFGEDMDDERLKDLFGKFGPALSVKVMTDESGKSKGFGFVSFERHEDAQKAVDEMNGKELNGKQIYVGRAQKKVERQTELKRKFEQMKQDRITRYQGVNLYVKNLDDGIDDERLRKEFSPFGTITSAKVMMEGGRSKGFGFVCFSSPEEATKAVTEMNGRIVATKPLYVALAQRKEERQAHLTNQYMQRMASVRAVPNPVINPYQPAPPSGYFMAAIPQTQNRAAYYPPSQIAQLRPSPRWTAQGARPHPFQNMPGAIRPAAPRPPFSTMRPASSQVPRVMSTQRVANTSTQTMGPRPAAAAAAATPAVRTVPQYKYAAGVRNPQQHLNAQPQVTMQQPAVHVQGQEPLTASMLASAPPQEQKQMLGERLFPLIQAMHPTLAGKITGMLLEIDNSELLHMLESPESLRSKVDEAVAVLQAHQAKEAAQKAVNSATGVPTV
Chain of Voltage-dependent T-type calcium channel subunit alpha-1H (O95180 whole entry): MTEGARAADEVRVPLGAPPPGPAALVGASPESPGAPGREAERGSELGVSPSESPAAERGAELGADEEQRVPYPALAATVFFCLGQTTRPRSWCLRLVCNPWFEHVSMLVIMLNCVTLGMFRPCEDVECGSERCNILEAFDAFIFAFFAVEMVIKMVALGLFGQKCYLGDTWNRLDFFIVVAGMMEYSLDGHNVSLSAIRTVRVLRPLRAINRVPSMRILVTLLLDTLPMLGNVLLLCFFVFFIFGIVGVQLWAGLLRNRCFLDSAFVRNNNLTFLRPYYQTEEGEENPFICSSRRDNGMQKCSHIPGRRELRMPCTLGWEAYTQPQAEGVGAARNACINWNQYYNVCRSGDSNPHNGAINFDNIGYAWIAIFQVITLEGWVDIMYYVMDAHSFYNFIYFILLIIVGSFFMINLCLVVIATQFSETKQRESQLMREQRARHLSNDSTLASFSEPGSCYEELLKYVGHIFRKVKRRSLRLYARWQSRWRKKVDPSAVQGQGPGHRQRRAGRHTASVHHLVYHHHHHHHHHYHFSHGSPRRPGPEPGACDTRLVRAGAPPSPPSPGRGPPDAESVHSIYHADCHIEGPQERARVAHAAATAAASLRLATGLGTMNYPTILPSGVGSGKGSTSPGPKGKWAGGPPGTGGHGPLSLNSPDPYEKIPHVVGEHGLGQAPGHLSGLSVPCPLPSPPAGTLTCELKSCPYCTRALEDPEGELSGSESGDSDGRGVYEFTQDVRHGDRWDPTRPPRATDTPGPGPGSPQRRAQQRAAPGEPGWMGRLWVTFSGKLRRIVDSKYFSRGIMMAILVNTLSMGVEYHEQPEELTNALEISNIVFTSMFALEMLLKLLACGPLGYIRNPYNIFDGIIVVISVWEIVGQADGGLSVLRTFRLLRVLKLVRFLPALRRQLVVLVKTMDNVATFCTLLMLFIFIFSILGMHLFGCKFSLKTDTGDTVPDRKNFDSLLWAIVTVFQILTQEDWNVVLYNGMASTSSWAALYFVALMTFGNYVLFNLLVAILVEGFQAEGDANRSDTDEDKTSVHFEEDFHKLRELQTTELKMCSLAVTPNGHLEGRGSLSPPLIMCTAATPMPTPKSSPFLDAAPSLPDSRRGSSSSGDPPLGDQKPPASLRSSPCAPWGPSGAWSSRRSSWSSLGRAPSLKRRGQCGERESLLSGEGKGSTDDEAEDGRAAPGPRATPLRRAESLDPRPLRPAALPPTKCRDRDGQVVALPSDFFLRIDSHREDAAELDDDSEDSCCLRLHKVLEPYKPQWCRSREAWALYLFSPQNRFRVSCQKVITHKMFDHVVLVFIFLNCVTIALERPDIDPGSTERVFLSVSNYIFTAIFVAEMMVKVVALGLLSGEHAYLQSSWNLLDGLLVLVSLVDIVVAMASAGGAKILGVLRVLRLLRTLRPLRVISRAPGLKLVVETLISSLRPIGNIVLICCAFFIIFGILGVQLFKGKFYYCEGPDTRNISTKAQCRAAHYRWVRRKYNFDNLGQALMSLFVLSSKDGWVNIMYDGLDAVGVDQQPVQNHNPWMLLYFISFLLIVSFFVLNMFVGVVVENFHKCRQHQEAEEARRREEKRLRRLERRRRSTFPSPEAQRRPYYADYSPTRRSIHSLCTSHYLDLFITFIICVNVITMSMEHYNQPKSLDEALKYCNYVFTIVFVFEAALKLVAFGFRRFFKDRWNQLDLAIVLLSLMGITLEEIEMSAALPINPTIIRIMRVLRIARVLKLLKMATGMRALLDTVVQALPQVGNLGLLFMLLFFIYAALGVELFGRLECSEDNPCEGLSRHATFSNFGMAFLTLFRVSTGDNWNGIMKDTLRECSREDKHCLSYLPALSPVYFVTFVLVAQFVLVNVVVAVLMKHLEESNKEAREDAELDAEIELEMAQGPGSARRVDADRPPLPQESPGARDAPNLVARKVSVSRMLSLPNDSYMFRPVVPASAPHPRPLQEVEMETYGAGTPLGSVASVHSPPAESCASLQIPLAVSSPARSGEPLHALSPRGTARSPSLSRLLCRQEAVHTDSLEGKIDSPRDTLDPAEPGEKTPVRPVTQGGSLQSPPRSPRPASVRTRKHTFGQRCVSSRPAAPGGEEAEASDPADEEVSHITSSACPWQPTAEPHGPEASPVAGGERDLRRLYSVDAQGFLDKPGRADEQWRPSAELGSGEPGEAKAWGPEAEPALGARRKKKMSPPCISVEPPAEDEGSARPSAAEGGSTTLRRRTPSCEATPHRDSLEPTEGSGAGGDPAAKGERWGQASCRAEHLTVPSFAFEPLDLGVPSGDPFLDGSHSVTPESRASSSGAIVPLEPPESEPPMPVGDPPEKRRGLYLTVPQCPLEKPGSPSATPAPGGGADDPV
Chain of Luciferin 4-monooxygenase (P08659 whole entry): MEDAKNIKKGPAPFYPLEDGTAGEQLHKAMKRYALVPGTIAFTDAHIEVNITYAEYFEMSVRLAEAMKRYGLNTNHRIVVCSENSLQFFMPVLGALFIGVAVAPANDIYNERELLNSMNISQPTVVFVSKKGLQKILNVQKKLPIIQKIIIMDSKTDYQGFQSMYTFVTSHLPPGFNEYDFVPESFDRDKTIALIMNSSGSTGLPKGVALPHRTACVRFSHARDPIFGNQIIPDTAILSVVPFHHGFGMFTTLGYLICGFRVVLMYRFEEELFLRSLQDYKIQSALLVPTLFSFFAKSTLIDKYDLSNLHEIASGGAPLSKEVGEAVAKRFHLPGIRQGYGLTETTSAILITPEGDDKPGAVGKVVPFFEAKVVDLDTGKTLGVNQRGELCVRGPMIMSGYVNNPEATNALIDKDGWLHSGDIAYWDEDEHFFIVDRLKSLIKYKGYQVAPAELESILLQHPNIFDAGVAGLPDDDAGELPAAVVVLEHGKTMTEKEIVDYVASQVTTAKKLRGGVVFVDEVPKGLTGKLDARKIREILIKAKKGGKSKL
Chain of FAD-linked sulfhydryl oxidase ALR (P55789 whole entry): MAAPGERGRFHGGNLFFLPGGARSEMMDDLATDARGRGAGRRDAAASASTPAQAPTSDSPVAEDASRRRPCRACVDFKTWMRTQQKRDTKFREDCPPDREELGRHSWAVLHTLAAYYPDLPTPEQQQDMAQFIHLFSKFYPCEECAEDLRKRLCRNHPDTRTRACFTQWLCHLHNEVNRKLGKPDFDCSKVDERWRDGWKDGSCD
Chain of Cytochrome P450 2D6 (P10635 whole entry): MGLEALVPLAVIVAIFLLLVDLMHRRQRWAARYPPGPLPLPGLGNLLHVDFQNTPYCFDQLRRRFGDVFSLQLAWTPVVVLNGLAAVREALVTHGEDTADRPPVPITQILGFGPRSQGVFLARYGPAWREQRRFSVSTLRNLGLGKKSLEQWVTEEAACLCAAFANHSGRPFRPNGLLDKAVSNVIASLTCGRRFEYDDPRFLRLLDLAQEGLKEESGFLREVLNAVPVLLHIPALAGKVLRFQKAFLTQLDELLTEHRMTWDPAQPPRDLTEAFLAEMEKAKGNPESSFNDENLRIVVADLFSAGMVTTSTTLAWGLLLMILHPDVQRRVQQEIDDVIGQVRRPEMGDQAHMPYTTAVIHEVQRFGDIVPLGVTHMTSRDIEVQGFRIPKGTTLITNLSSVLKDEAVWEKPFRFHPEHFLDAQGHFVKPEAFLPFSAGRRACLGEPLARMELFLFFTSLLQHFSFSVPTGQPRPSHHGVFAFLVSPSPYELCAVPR
Chain of Cytochrome P450 2C9 (P11712 whole entry): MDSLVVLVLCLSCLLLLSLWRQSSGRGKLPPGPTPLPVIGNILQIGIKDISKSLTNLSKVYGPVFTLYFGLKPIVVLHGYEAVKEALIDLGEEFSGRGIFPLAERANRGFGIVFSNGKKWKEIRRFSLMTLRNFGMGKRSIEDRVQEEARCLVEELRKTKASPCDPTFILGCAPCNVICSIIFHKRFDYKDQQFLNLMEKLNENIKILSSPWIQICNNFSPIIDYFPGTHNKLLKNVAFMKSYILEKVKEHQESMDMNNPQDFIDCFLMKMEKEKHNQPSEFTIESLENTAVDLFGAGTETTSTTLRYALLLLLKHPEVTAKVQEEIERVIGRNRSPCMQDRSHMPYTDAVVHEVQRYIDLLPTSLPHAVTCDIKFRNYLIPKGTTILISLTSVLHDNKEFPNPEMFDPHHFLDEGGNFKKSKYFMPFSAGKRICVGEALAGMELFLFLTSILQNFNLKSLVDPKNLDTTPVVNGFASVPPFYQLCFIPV

CC1(C)Cc2c(sc(NC(=O)c3ccc(C(=O)c4ccccc4)cc3)c2C(N)=O)C(C)(C)N1
EC50 [1]: > 150 µM (not active)
EC50 [2]: 10.3 µM (active)
CC50 [3]: 20.7 µM (active)
EC50 [4]: > 150 µM (not active)
EC50 [5]: 16.9 µM (active)
EC50 [6]: 26.3 µM (active)
EC50 [7]: 11.6 µM (active)

COc1ccc2c(c1)N(C(=O)CSc1n[nH]c(C)n1)C(C)(C)C=C2C
EC50 [8]: > 112 µM (not active)
EC50 [9]: > 112 µM (not active)

O=C(CC(Nc1ccccc1Cl)C(=O)O)c1ccccc1 (configuration not stated)
AC50 [10]: 13 µM (active)

CCCOC(=O)c1ccc(NC(=O)c2ccoc2C)cc1
EC50 [8]: 4.18 µM (active)
EC50 [9]: 5.2 µM (active)

CC1CN(C(=O)N2c3ccccc3Sc3ccccc32)C(C)CC1=O (configuration not stated)
EC50 [11]: 8.31 µM (active)

Nc1ccc(-c2cc(N)n(-c3ccccc3)n2)cc1
AC50 [10]: 0.8 µM (active)

CC1(c2ccc3noc(-c4ccc(F)cc4)c3c2)OCCO1
IC50 [12]: > 66 µM (inactive)
IC50 [13]: 19.3 µM (active)

COc1ccc(-c2nn(-c3ccccc3)cc2C(=O)O)cc1OC
EC50 [8]: > 112 µM (not active)
EC50 [9]: > 112 µM (not active)

Cc1ccc(-c2noc(CN(C(=O)CCCCCN3C(=O)c4ccccc4C3=O)C(C)C)n2)cc1
EC50 [11]: 7.53 µM (active)
IC50 [14]: 5.93 µM (not active)

O=C1/C(=C\c2ccc([N+](=O)[O-])cc2)CCc2ccccc21
EC50 [8]: 8.13 µM (active)
EC50 [9]: 2.53 µM (active)

Cc1ccc(NC(=O)N2CCC(c3ccccc3)C2)cc1C (configuration not stated)
EC50 [8]: > 112 µM (not active)
EC50 [9]: > 112 µM (not active)

CCOc1ccc(-c2cc(CCCC(=O)NCCC(C)C)no2)cc1
CC50 [3]: > 40 µM (active)
IC50 [15]: 10.6 µM (active)

[O-][S+](Cc1cc(Oc2ccccc2)nc(-c2ccccc2)n1)c1ccccc1 (configuration not stated)
AC50 [16]: 28.2 µM (inconclusive)
AC50 [17]: 3.98 µM (inconclusive)
AC50 [18]: 1.26 µM (inconclusive)
EC50 [11]: 7.24 µM (active)

Cn1cccc1Cc1nnc(SCC(=O)Nc2ccc(F)cc2)n1-c1ccc(F)cc1
EC50 [11]: 2.17 µM (active)

CCS(=O)(=O)n1nc(NCc2cccc(OC)c2)nc1NCc1cccc(OC)c1
EC50 [11]: 8.18 µM (active)

COc1ccc(NC(=S)N=Nc2c(O)[nH]c3ccccc23)cc1
EC50 [1]: 14.1 µM (active)
IC50 [12]: > 66 µM (inactive)
IC50 [13]: > 66 µM (inactive)
EC50 [4]: > 150 µM (not active)
EC50 [6]: 2.34 µM (active)

Cc1cc(C)c(S(=O)(=O)Nc2ccc(N(C)C)cc2)c(C)c1-n1cnnn1
EC50 [19]: > 195 µM (not active)
AC50 [10]: 0.197 µM (active)
IC50 [20]: 41.6 µM (active)

O=c1[nH]c2cc3c(cc2cc1CN(CCCO)Cc1nnnn1Cc1ccc(F)cc1)OCO3
AC50 [17]: 11.2 µM (inconclusive)
IC50 [12]: > 66 µM (inactive)
AC50 [18]: 12.6 µM (inconclusive)
IC50 [13]: > 66 µM (inactive)

CNc1nnc(CSc2nc3ccccc3s2)s1
AC50 [10]: 0.714 µM (active)

O=C(Cn1cccc1)N1CCN(c2ccc(F)cc2)CC1
EC50 [8]: > 112 µM (not active)
EC50 [9]: > 112 µM (not active)

COc1cccc(/C=C2\SC(=S)N(c3cccnc3)C2=O)c1OC
IC50 [12]: > 66 µM (inactive)
IC50 [13]: > 66 µM (inactive)

Cn1cccc1Cc1nnc(SCC(=O)Nc2cccc(F)c2)n1-c1ccc(F)cc1
EC50 [11]: 3.35 µM (active)

Cc1ccc(C(=O)N2CCN(c3ccccc3O)CC2)cc1S(=O)(=O)N1CCCCC1
AC50 [10]: 9.33 µM (active)

O=C(NC12CC3CC(CC(C3)C1)C2)c1cnccn1
IC50 [12]: 43.3 µM (inactive)
IC50 [13]: 38.7 µM (inactive)

COc1c(/C=N/NC(=O)c2ccccc2O)c(CCN(C)C(C)=O)cc2c1OCO2
EC50 [8]: > 112 µM (not active)
EC50 [9]: > 112 µM (not active)

O=C(O)CCCCCCC1C(=O)NC(=O)N1CCC(O)C1CCCCC1 (configuration not stated)
EC50 [8]: > 112 µM (not active)
EC50 [9]: < 0.088 µM (active)
